Biological target: CBP (Homo sapiens (Human), UniProt Q92793)
Experiment: In vitro CBP inhibition (AlphaScreen, biotinylated H4-tetraacetyl peptide)
Type: binding
Settings: AlphaScreen, Table 29; read-out: CBP IC50
In short: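 His-tagged CBP expressed in E. coli (50 nM final) incubated with biotinylated H4K5/8/12/16(Ac) peptide (20 nM final) in 50 mM HEPES pH 7.3, 10 mM NaCl, 0.25 mM TCEP, 0.1% BSA, 0.005% Brij-35, 0.4% DMSO, 20 min at room temp.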

CBP, sequence (Q92793 1081-1197): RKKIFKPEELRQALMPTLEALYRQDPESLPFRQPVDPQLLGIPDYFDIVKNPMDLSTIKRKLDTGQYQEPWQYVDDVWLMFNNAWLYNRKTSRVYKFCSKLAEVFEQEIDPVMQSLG

`Cn1cc(-c2cnn(C3CCN(S(C)(=O)=O)CC3)c2)c(-c2ccccc2)cc1=O` [Example 127, 1-methyl-5-(1-(1-(methyl-sulfonyl)-piperidin-4-yl)-1H-pyrazol-4-yl)-4-phenylpyridin-2(1H)-one] and `Cn1cc(-c2cnn(CC3CC3)c2)c(-c2ccccc2)cc1=O` [Example 146, 5-(1-(cyclopropyl-methyl)-1H-pyrazol-4-yl)-1-methyl-4-phenyl-pyridin-2(1H)-one] cannot be ordered by IC50: under 0.5 µM for the first, under 0.5 µM for the second.

`Cn1cc(-c2cnn(-c3ccccc3)c2)c(-c2ccccc2)cc1=O` [Example 128, 1-methyl-4-phenyl-5-(1-phenyl-1H-pyrazol-4-yl) pyridin-2(1H)-one] and `CCn1cc(-c2cn(C)c(=O)cc2-c2ccccc2)cn1` [Example 132, 5-(1-ethyl-1H-pyrazol-4-yl)-1-methyl-4-phenylpyridin-2(1H)-one] cannot be ordered by IC50: under 0.5 µM for the first, under 0.5 µM for the second.

`Cn1cc(-c2cnn(CCN3CCOCC3)c2)c(-c2ccccc2)cc1=O` [Example 130, 1-methyl-5-(1-(2-morpho-linoethyl)-1H-pyrazol-4-yl)-4-phenylpyridin-2(1H)-one] and `CCCn1cc(-c2cn(C)c(=O)cc2-c2ccccc2)cn1` [Example 139, 1-methyl-4-phenyl-5-(1-propyl-1H-pyrazol-4-yl)pyridin-2(1H)-one] cannot be ordered by IC50: under 0.5 µM for the first, under 0.5 µM for the second.

First: Cn1cc(-c2cnn(Cc3ccccc3)c2)c(-c2ccccn2)cc1=O [Example 131, 5′-(1-benzyl-1H-pyrazol-4-yl)-1′-methyl-[2,4′-bipyridin]-2′(1′H)-one]
Second: CC(C)Cn1cc(-c2cn(C)c(=O)cc2-c2ccccc2)cn1 [Example 137, 5-(1-isobutyl-1H-pyrazol-4-yl)-1-methyl-4-phenylpyridin-2(1H)-one]
The IC50 of the first is higher: 0.5 to 5 µM for the first, under 0.5 µM for the second.

`Cn1cc(-c2cn[nH]c2)c(-c2ccccc2)cc1=O` [Example 133, 1-methyl-4-phenyl-5-(1H-pyrazol-4-yl)pyridin-2(1H)-one] and `CC(C)n1cc(-c2cn(C)c(=O)cc2-c2ccccc2)cn1` [Example 138, 5-(1-isopropyl-1H-pyrazol-4-yl)-1-methyl-4-phenylpyridin-2(1H)-one] cannot be ordered by IC50: under 0.5 µM for the first, under 0.5 µM for the second.

`CN(C)C(=O)Cn1cc(-c2cn(C)c(=O)cc2-c2ccccc2)cn1` [Example 135, N,N-dimethyl-2-(4-(1-methyl-6-oxo-4-phenyl-1,6-dihydropyridin-3-yl)-1H-pyrazol-1-yl)acetamide] and `COC(=O)Cn1cc(-c2cn(C)c(=O)cc2-c2ccccc2)cn1` [Example 140, methyl 2-(4-(1-methyl-6-oxo-4-phenyl-1,6-dihydropyridin-3-yl)-1H-pyrazol-1-yl)acetate] cannot be ordered by IC50: under 0.5 µM for the first, under 0.5 µM for the second.

Compared with `Cc1nn(C)cc1-c1cn(C)c(=O)cc1-c1ccccc1` [Example 136, 5-(1,3-dimethyl-1H-pyrazol-4-yl)-1-methyl-4-phenylpyridin-2(1H)-one], `Cc1nn(C)c(C)c1-c1cn(C)c(=O)cc1-c1ccccc1` [Example 145, 1-methyl-4-phenyl-5-(1,3,5-tri-methyl-1H-pyrazol-4-yl) pyridin-2(1H)-one] is higher in IC50: under 0.5 µM for the first, 0.5 to 5 µM for the second.

`CCCNC(=O)Cn1cc(-c2cn(C)c(=O)cc2-c2ccccc2)cn1` [Example 141, 2-(4-(1-methyl-6-oxo-4-phenyl-1,6-dihydro-pyridin-3-yl)-1H-pyrazol-1-yl)-N-propylacetamide] and `Cn1cc(-c2cn(C)c(=O)cc2C2CC2)cn1` [Example 144, 4-cyclopropyl-1-methyl-5-(1-methyl-1H-pyrazol-4-yl) pyridin-2(1H)-one] cannot be ordered by IC50: under 0.5 µM for the first, under 0.5 µM for the second.

`Cn1cc(-c2cn(C)c(=O)cc2C2CCCC2)cn1` [Example 142, 4-cyclopentyl-1-methyl-5-(1-methyl-1H-pyrazol-4-yl) pyridin-2(1H)-one] and `Cn1cc(-c2cn(C)c(=O)cc2C2CCCCC2)cn1` [Example 143, 4-cyclohexyl-1-methyl-5-(1-methyl-1H-pyrazol-4-yl)pyridin-2 (1H)-one] fall in the same range of IC50: 0.5 to 5 µM for the first, 0.5 to 5 µM for the second.
